This passage reports melting point and IC50 results from patent publication US20040147505A1, “Novel heteroaryl-diazabicyclo alkanes as cns-modulators” (priority 2001, published 2004).

Each structure is given as a SMILES string. Structures can show the parent of a compound that is named as a salt.

Usually melting point stands for the temperature of the solid-liquid transition. A word on the IC50: it is the concentration that inhibits the measured activity by half. A high value points to lower potency.

T1 sequence (P12390 25-500): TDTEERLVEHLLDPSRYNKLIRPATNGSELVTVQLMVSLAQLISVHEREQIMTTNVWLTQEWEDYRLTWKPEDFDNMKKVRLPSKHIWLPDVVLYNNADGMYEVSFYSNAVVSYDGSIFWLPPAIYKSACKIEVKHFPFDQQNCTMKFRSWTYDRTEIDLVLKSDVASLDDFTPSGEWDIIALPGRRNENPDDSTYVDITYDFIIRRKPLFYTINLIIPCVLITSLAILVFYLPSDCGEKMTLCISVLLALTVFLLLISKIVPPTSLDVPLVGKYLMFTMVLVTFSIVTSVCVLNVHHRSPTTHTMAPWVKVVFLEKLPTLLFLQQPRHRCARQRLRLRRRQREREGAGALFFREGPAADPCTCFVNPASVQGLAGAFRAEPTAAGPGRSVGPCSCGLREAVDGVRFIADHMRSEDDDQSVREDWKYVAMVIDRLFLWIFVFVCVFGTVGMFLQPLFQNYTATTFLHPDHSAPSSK
T1 sequence (P09483 31-630): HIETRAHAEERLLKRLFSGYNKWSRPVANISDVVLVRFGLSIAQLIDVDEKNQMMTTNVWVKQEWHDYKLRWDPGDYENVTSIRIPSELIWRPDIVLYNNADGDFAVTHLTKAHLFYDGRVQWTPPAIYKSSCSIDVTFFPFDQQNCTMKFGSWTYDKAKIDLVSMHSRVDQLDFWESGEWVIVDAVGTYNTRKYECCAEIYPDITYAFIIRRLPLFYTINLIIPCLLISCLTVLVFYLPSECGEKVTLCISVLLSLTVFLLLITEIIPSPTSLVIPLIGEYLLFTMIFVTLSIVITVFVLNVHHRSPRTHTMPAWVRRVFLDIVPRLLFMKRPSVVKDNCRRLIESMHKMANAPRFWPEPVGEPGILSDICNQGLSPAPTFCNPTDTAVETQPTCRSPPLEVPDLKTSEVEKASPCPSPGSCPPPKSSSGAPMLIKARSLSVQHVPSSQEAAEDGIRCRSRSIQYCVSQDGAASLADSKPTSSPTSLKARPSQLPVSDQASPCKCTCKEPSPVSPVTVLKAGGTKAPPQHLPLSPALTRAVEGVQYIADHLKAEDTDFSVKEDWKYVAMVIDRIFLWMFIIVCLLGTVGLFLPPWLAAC

Test system in the first series: not given
Assay: not given
Conditions: not given
Compound `C=CCN1CC2CC(C1)CN(c1ccc(-c3ccccc3)nn1)C2` (as salt: fumaric acid salt) registered a melting point of 183.5 to 187.6 °C.

On to `Clc1cncc(N2CC3CNCC(C3)C2)n1` (as salt: fumaric acid salt) [Compound F2, 3-H-7-(6-Chloro-2-pyrazinyl)-3,7-diazabicyclo-[3.3.1]-nonane], for which the melting point lay in the range of 180.3 to 181.9 °C.

The compound `c1ccc(CN2CC3CC(C2)CN(c2ccc4ccccc4n2)C3)cc1` (as salt: fumaric acid salt) [Compound C3, 3-Benzyl-7-(2-quinolinyl)-3,7-diazabicyclo-[3.3.1]-nonane] returned a melting point of 56.1 to 56.8 °C.

`Clc1ccc(N2CC3CC(CN(Cc4ccccc4)C3)C2)nn1` (as salt: fumaric acid salt) showed a melting point of 204 to 205 °C.

For the compound `Clc1cncc(N2CC3CC(CN(Cc4ccccc4)C3)C2)n1` (as salt: fumaric acid salt), the melting point was in the range of 183.1 to 183.3 °C.

Regarding `O=[N+]([O-])c1ccc2nc(N3CC4CC(CN(Cc5ccccc5)C4)C3)ccc2c1` (as salt: fumaric acid salt) [Compound C6, 3-Benzyl-7-(6-nitro-2-quinolinyl)-3,7-diazabicyclo-[3.3.1]-nonane], the melting point lay in the range of 168 to 172 °C.

`Clc1ccc(N2CC3CNCC(C3)C2)nn1` (as salt: fumaric acid salt) [Compound F1, 3-H-7-(6-Chloro-3-pyridazinyl)-3,7-diazabicyclo-[3.3.1]-nonane]: the melting point lay within 195.5 to 196.5 °C.

Take `CN1CC2CC(C1)CN(c1ccc(-c3ccccc3)nn1)C2` (as salt: fumaric acid salt): the melting point lay within 213.9 to 220.8 °C.

The next series has as its target T1, nAChRs comprised of α4 and β2 subunits (Rattus norvegicus, UniProt P09483+P12390).
T1 construct: Cerebral corticies from male Wistar rats (150-250 g) are homogenized; from tissue; host or cells: rat cerebral cortex membrane homogenate
The series can be described thus: In vitro inhibition of 3H-cytisine binding. As to conditions: cerebral cortex homogenate from male Wistar rats; 3H-cytisine 1 nM; 90 min at 2° C. As for the experimental part:
The predominant subtype with high affinity for nicotine is comprised of α4 and β2 subunits. nAChRs of the latter type can selectively be labelled by the nicotine agonist ^3H-cytisine.
Cerebral corticies from male Wistar rats (150-250 g) are homogenized for 20 sec in 15 ml Tris, HCl (50 mM, pH 7.4) containing 120 mM NaCl, 5 mM KCl, 1 mM MgCl2 and 2.5 mM CaCl2 using an Ultra-Turrax homogenizer. The homogenate is centrifuged at 27,000×g for 10 min. The supernatant is discarded and the pellet is resuspended in fresh buffer and centrifuged a second time. The final pellet is resuspended in fresh buffer (35 ml per g of original tissue) and used for binding assays.
Aliquots of 500 μl homogenate are added to 25 μl of test solution and 25 μl of ^3H-cytisine (1 nM, final concentration), mixed and incubated for 90 min at 2° C. Non-specific binding is determined using (−)-nicotine (100 μM, final concentration). After incubation the samples are added 5 ml of ice-cold buffer and poured directly onto Whatman GF/C glass fibre filters under suction and immediately washed with 2×5 ml ice-cold buffer. The amount of radioactivity on the filters is determined by conventional liquid scintillation counting. Specific binding is total binding minus non-specific binding.
Turning to `Clc1cncc(N2CC3CNCC(C3)C2)n1` [Compound F2, 3-H-7-(6-Chloro-2-pyrazinyl)-3,7-diazabicyclo-[3.3.1]-nonane], the IC50 was found to be 3.4 nM.

Take `Clc1ccc(N2CC3CNCC(C3)C2)nn1` [Compound F1, 3-H-7-(6-Chloro-3-pyridazinyl)-3,7-diazabicyclo-[3.3.1]-nonane]: the IC50 is 3 nM.

For another series, the target named is T2, serotonin transporter (Rattus norvegicus, UniProt P31652).
T2 construct: Cerebral cortices from male Wistar rats (150-200 g) are homogenized; from tissue; host or cells: rat cerebral cortex synaptosomes (P2 pellet)
T2 sequence (P31652 whole entry): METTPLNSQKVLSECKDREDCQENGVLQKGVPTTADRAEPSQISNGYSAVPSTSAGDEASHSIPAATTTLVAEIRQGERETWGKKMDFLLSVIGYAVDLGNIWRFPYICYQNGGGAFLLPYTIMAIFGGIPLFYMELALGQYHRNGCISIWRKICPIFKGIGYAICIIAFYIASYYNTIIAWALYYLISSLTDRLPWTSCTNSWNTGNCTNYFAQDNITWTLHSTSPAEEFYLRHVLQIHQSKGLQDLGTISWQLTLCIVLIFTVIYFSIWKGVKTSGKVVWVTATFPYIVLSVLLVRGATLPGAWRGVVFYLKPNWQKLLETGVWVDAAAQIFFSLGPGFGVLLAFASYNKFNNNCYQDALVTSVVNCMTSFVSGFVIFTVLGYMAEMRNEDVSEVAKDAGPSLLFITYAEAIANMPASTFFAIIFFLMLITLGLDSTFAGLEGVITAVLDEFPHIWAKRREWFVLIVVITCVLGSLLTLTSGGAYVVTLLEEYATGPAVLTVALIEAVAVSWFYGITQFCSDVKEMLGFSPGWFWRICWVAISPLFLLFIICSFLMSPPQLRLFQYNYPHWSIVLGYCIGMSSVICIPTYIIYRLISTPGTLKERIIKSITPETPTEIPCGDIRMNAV
The series is described as follows: In vitro inhibition of 3H-5-hydroxytryptamine (3H-5-HT, serotonin) uptake in cortical synaptosomes. In kind it is biochemical. As to conditions: cortical synaptosomes from male Wistar rats; 3H-5-HT 1 nM; 30 min at 37° C. As for the experimental part: The activity of the serotonin transporter integral protein can be measured in vitro by synaptosomal uptake of ^3H-5-hydroxytryptamine.
Preparations are performed at 0-4° C. unless otherwise indicated. […] Monoamine oxidase activity will be inhibited in the presence of pargyline. The homogenate is centrifuged at 1000×g for 10 min. The resulting supernatant is then centrifuged at 27,000×g for 50 min and the supernatant is discarded.
Non-specific uptake is determined using citalopram (1 μM, final concentration). After incubation the samples are poured directly onto Whatman GF/C glass fibre filters under suction. The filters are then washed three times with 5 ml of ice-cold 0.9% (w/v) NaCl solution. The amount of radioactivity on the filters is determined by conventional liquid scintillation counting. Specific uptake is calculated as the difference between total uptake and non-specific uptake.
`O=[N+]([O-])c1ccc2nc(N3CC4CC(CN(Cc5ccccc5)C4)C3)ccc2c1` [Compound C6, 3-Benzyl-7-(6-nitro-2-quinolinyl)-3,7-diazabicyclo-[3.3.1]-nonane]: the IC50 stood at 5.7 nM.

Compound `c1ccc(CN2CC3CC(C2)CN(c2ccc4ccccc4n2)C3)cc1` [Compound C3, 3-Benzyl-7-(2-quinolinyl)-3,7-diazabicyclo-[3.3.1]-nonane] had an IC50 of 22 nM.
